# Measured values published in patent publication US7803930B2, “Antisense modulation of apolipoprotein B-expression” (Isis Pharmaceuticals, Inc., priority 2002, dated 2010).
# In the oligonucleotide strings, read from the 5' end, every base follows the letter of its sugar. An asterisk marks phosphorothioate; unmarked linkages are phosphodiester. Other units and linkages are bracketed, terminal groups are in braces. A string of capitals states the bases alone. e = 2'-O-(2-methoxyethyl) (MOE); [5mC] = 5-methylcytosine; d = 2'-deoxy (DNA)
# Test system: human apolipoprotein B mRNA
# Assay: Inhibition of human apolipoprotein B mRNA levels in HepG2 cells, quantitative real-time PCR
# Assay type: cell-based
# Details: for % INHIB / % INHIB 50 nm / % INHIB 150 nm / % Change in apolipoprotein B mRNA expression / % inhibition of apolipoprotein B mRNA levels: HepG2 cells; for % INHIB (inhibition of human apolipoprotein B mRNA levels): HepG2 cells treated with 150 nM of compound, quantitative real-time PCR; for % Change in apolipoprotein B mRNA expression: 24 hour (Table 41); for % inhibition of apolipoprotein B mRNA levels: normalized to untreated control, average of two experiments
# In short: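 HepG2 cells at 80% confluency were transfected with antisense oligonucleotide using 3.75 μg/mL Lipofectin in Opti-MEM for 4-7 h and harvested 16-24 h after treatment. Apolipoprotein B mRNA was measured by real-time RT-PCR and normalized to GAPDH or RiboGreen total RNA. Percent inhibition came from untreated-control standard curves.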
# [1] = human apolipoprotein B mRNA, oligonucleotides targeting genomic sequence SEQ ID NO 334, averages from two experiments
# [2] = Table 11 gene walk, 50 nM, averages from two experiments
# [3] = Table 11 gene walk, 150 nM, averages from two experiments
# [4] = Table 12, 150 nM, averages from two experiments
# [5] = 50 nm oligonucleotide, variable deoxy gap position
# [6] = 150 nm oligonucleotide, variable deoxy gap position
# [7] = Table 1, 150 nM, averages from two experiments
substance,measurement,setting,value
301126 (eG*eG*e[5mC]*eT*eA*dA*dT*dA*dA*dA*dT*dA*dG*dG*dG*eT*eA*eG*eT*eT; antisense) [compound 301126],% INHIB,[1],22%
301017 (eT*e[5mC]*e[5mC]*eT*e[5mC]*dA*dG*d[5mC]*dG*dG*d[5mC]*dA*dG*d[5mC]*dA*eA*e[5mC]*e[5mC]*eG*eA; antisense) [compound 301017],% INHIB (inhibition of human apolipoprotein B mRNA levels),averages from two experiments,47%
301128 (e[5mC]*e[5mC]*eT*e[5mC]*e[5mC]*dT*dG*dG*dT*d[5mC]*d[5mC]*dT*dG*d[5mC]*dA*eG*eT*e[5mC]*eA*eA; antisense) [compound 301128],% INHIB,[1],56%
271030 (e[5mC]*eA*eG*eT*eT*dA*dG*dA*dA*d[5mC]*dA*d[5mC]*dT*dG*dT*eG*eG*e[5mC]*e[5mC]*e[5mC]; antisense) [compound 271030],% INHIB (inhibition of human apolipoprotein B mRNA levels),averages from two experiments,52%
308603 (eG*eT*e[5mC]*eA*eT*dG*dG*dT*dA*dG*d[5mC]*d[5mC]*dT*d[5mC]*dA*eG*eT*e[5mC]*eT*eG; antisense) [compound 308603],% INHIB 50 nm,[2],56%
same,% INHIB 150 nm,[3],97%
271047 (e[5mC]*e[5mC]*eT*e[5mC]*e[5mC]*d[5mC]*dT*d[5mC]*dA*dT*dG*dA*dA*d[5mC]*dA*eT*eA*eG*eT*eG; antisense) [compound 271047],% INHIB,[4],32%
271045 (eG*eT*e[5mC]*eA*eA*d[5mC]*dA*dG*dT*dT*d[5mC]*d[5mC]*dT*dG*dG*eT*eA*e[5mC]*eA*eG; antisense) [compound 271045],% INHIB (inhibition of human apolipoprotein B mRNA levels),averages from two experiments,19%
301138 (eT*eT*eG*e[5mC]*eT*dA*dG*d[5mC]*dT*dT*d[5mC]*dA*dA*dA*dG*eT*eG*eG*eA*eA; antisense) [compound 301138],% INHIB,[1],44%
"308662 (antisense TGGTAGCCTCAGTCTGCTTC; 8-10-2 2'-MOE gapmer, phosphorothioate, chemistry not fully specified) [compound 308662]",% INHIB 50 nm,[5],76%
same,% INHIB 150 nm,[6],83%
271005 (antisense eG*eG*e[5mC]*eA*e[5mC]*d[5mC]*d[5mC]*dA*dT*d[5mC]*dA*dG*dA*dA*dG*e[5mC]*eA*eG*e[5mC]*eT) [compound 271005],% INHIB (inhibition of human apolipoprotein B mRNA levels),averages from two experiments,32%
301092 (antisense e[5mC]*eA*eT*eG*eA*d[5mC]*d[5mC]*dT*dA*d[5mC]*dT*dT*dG*dT*dA*eG*eG*eA*eG*eA) [compound 301092],% INHIB,[1],22%
281623 (antisense e[5mC]*e[5mC]*e[5mC]*eA*eT*d[5mC]*d[5mC]*dA*dG*dA*d[5mC]*dT*dG*dA*dA*eT*eT*eT*eT*eG) [compound 281623],% INHIB (inhibition of human apolipoprotein B mRNA levels),averages from two experiments,59%
271032 (e[5mC]*eT*eG*eT*eG*dG*d[5mC]*dT*dA*dA*d[5mC]*dT*dT*d[5mC]*dA*eA*eT*e[5mC]*e[5mC]*e[5mC]; antisense) [compound 271032],% INHIB (inhibition of human apolipoprotein B mRNA levels),averages from two experiments,22%
270994 (antisense eG*e[5mC]*e[5mC]*eT*eT*dT*dG*dA*dT*dG*dA*dG*dA*dG*d[5mC]*eA*eA*eG*eT*eG) [compound 270994],% INHIB (inhibition of human apolipoprotein B mRNA levels),averages from two experiments,51%
308604 (eA*eT*eG*eT*e[5mC]*dA*dT*dG*dG*dT*dA*dG*d[5mC]*d[5mC]*dT*e[5mC]*eA*eG*eT*e[5mC]; antisense) [compound 308604],% INHIB 50 nm,[2],73%
same,% INHIB 150 nm,[3],90%
147781 (antisense eA*e[5mC]*e[5mC]*eG*eA*dG*dA*dA*dG*dG*dG*d[5mC]*dA*d[5mC]*dT*e[5mC]*eA*eG*e[5mC]*e[5mC]) [compound 147781],% INHIB,[7],35%
301074 (eG*eA*eG*e[5mC]*eT*d[5mC]*dA*dT*dA*d[5mC]*d[5mC]*dT*dG*dT*d[5mC]*e[5mC]*e[5mC]*eA*eG*eA; antisense) [compound 301074],% INHIB,[1],75%
147790 (antisense eT*eG*eT*eG*e[5mC]*dT*dA*d[5mC]*d[5mC]*dA*dT*d[5mC]*d[5mC]*d[5mC]*dA*eT*eA*e[5mC]*eT*eT) [compound 147790],% INHIB,[7],33%
301035 (eT*eT*e[5mC]*eT*eG*d[5mC]*dT*dT*dA*dT*dA*dG*dT*d[5mC]*dT*eA*e[5mC]*eT*eG*e[5mC]; antisense) [compound 301035],% INHIB (inhibition of human apolipoprotein B mRNA levels),averages from two experiments,82%
301168 (antisense e[5mC]*eA*e[5mC]*eT*e[5mC]*dA*dT*dG*dA*d[5mC]*d[5mC]*dA*dG*dA*d[5mC]*eT*eA*eA*eG*eA) [compound 301168],% INHIB,[1],35%
"308643 (antisense AGGTTACCAGCCACATGCAG; 3-10-7 2'-MOE gapmer, phosphorothioate, chemistry not fully specified) [compound 308643]",% INHIB 50 nm,[5],56%
same,% INHIB 150 nm,[6],96%
308628 (e[5mC]*e[5mC]*eT*e[5mC]*eA*dG*dT*d[5mC]*dT*dG*d[5mC]*dT*dT*d[5mC]*dG*e[5mC]*eG*e[5mC]*e[5mC]*eT; antisense) [compound 308628],% INHIB 50 nm,"Table 13 gene walk, 50 nM, averages from two experiments",61%
same,% INHIB 150 nm,"Table 13 gene walk, 150 nM, averages from two experiments",92%
"332784 (antisense GCCTCAGTCT; linkages s4 o1 s4 (s phosphorothioate, o phosphodiester), sugars by position and methylation of C not given here; 2'-MOE wings flank a DNA gap) [compound 332784]",% Change in apolipoprotein B mRNA expression,10 nM,+12%
same,% Change in apolipoprotein B mRNA expression,50 nM,−1%
same,% Change in apolipoprotein B mRNA expression,150 nM,+7%
281589 (eT*e[5mC]*eA*eG*e[5mC]*dA*dA*dG*dG*d[5mC]*dT*dT*dT*dG*d[5mC]*e[5mC]*e[5mC]*eT*e[5mC]*eA; antisense) [compound 281589],% INHIB (inhibition of human apolipoprotein B mRNA levels),averages from two experiments,90%
301184 (antisense eT*eA*eT*eT*eG*dT*dG*dT*dG*d[5mC]*dT*dG*dG*dG*d[5mC]*eA*e[5mC]*eT*eG*e[5mC]) [compound 301184],% INHIB,[1],52%
308596 (antisense eA*eG*eT*e[5mC]*eT*dG*d[5mC]*dT*dT*d[5mC]*dG*d[5mC]*dA*d[5mC]*d[5mC]*eT*eT*e[5mC]*eT*eG) [compound 308596],% INHIB 50 nm,[2],81%
same,% INHIB 150 nm,[3],94%
281639 (antisense eG*eA*e[5mC]*eG*eT*d[5mC]*dA*dG*dA*dA*d[5mC]*d[5mC]*dT*dA*dT*eG*eA*eT*eG*eG) [compound 281639],% INHIB,[4],38%
301225 (antisense eT*eA*eA*eA*eT*d[5mC]*dA*d[5mC]*dA*d[5mC]*dT*dA*dT*dG*dT*eG*eT*eT*e[5mC]*eT) [compound 301225],% INHIB,"Table 15, 150 nM, averages from two experiments",3%
271004 (antisense eG*e[5mC]*eT*e[5mC]*e[5mC]*dT*d[5mC]*dT*d[5mC]*d[5mC]*d[5mC]*dA*dA*dG*dA*eT*eG*e[5mC]*eG*eG) [compound 271004],% INHIB (inhibition of human apolipoprotein B mRNA levels),averages from two experiments,10%
"308660 (antisense TGGTAGCCTCAGTCTGCTTC; 2-10-8 2'-MOE gapmer, phosphorothioate, chemistry not fully specified) [compound 308660]",% INHIB 50 nm,[5],72%
same,% INHIB 150 nm,[6],92%
301121 (antisense eT*eT*eA*eT*eG*dA*dT*dA*dG*d[5mC]*dT*dA*d[5mC]*dA*dG*eA*eA*eT*eA*eA) [compound 301121],% INHIB,[1],29%
301109 (antisense eG*eT*eT*eT*e[5mC]*dA*dT*dG*dG*dA*dA*d[5mC]*dT*d[5mC]*dA*eG*e[5mC]*eG*e[5mC]*eA) [compound 301109],% INHIB,[1],44%
271024 (eG*e[5mC]*eT*e[5mC]*eA*d[5mC]*dT*dG*dT*dT*d[5mC]*dA*dG*d[5mC]*dA*eT*e[5mC]*eT*eG*eG; antisense) [compound 271024],% INHIB,[4],27%
281634 (antisense e[5mC]*eT*e[5mC]*eT*e[5mC]*dG*dA*dT*dT*dA*dA*d[5mC]*dT*d[5mC]*dA*eT*eG*eG*eA*e[5mC]) [compound 281634],% INHIB (inhibition of human apolipoprotein B mRNA levels),averages from two experiments,81%
"308642 (GCCTCAGTCTGCTTCGCGCC; 3-10-7 MOE gapmer, phosphorothioate, chemistry not fully specified) [compound 308642]",% inhibition of apolipoprotein B mRNA levels,12.5 nM oligonucleotide,59%
same,% inhibition of apolipoprotein B mRNA levels,37 nM oligonucleotide,84%
same,% inhibition of apolipoprotein B mRNA levels,75 nM oligonucleotide,91%
same,% inhibition of apolipoprotein B mRNA levels,150 nM oligonucleotide,97%
same,% inhibition of apolipoprotein B mRNA levels,300 nM oligonucleotide,98%
same,% INHIB 50 nm,"Table 17 variable gap, 50 nM, averages from three experiments",85%
same,% INHIB 150 nm,"Table 17 variable gap, 150 nM, averages from three experiments",95%
